Measured values: ChEMBL document CHEMBL1201862, “PubChem BioAssay data set” (2004)
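Assay format: 96-well plates, 48-hour exposure. GI50 = concentration required for 50% inhibition of growth.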 Calls of active or inactive are those of the source. Rule as the data show it: active = GI50 up to about 1.1 µM and inactive = higher.

Assays:
Experiment in all cases: inhibition of tumour cell growth, NCI panel, 48 h
OVCAR-3 = system: OVCAR-3
UO-31 = system: UO-31
U-251 = system: U-251
ACHN = system: ACHN
UACC-62 = system: UACC-62
SF-539 = system: SF-539
Malme-3M = system: Malme-3M
OVCAR-4 = system: OVCAR-4
CAKI-1 = system: CAKI-1
K562 = system: K562
RXF 393 = system: RXF 393
NCI-H23 = system: NCI-H23
NCI-H226 = system: NCI-H226
OVCAR-5 = system: OVCAR-5
SNB-75 = system: SNB-75
HCT-15 = system: HCT-15
SW-620 = system: SW-620
RPMI-8226 = system: RPMI-8226
LOX IMVI = system: LOX IMVI

Structure (SMILES)	GI50 (OVCAR-3)	GI50 (UO-31)	GI50 (U-251)	GI50 (ACHN)	GI50 (UACC-62)	GI50 (SF-539)	GI50 (Malme-3M)	GI50 (OVCAR-4)	GI50 (CAKI-1)	GI50 (K562)	GI50 (RXF 393)	GI50 (NCI-H23)	GI50 (NCI-H226)	GI50 (OVCAR-5)	GI50 (SNB-75)	GI50 (HCT-15) [µM]	GI50 (SW-620)	GI50 (RPMI-8226)	GI50 (LOX IMVI)
Cn1c(=O)nc2n(-c3cccc(Br)c3)c3ccccc3nc-2c1=O	2.38 µM (inactive)	12.9 µM (inactive)	5.01 µM (inactive)	1.36 µM (inactive)	1.63 µM (inactive)	5.42 µM (inactive)	2.71 µM (inactive)	3.71 µM (inactive)	12.3 µM (inactive)	5.16 µM (inactive)	11.5 µM (inactive)	1.61 µM (inactive)	8.38 µM (inactive)	13.3 µM (inactive)	9.82 µM (inactive)	4.06	2.61 µM (inactive)	4.57 µM (inactive)	
CCOC(=O)C1(C(=O)OCC)OC(=O)NC2=C1CCCC2	> 100 µM (inactive)	> 100 µM (inactive)	> 100 µM (inactive)	> 100 µM (inactive)		> 100 µM (inactive)	> 100 µM (inactive)			> 100 µM (inactive)	> 100 µM (inactive)	> 100 µM (inactive)		> 100 µM (inactive)	> 100 µM (inactive)		> 100 µM (inactive)	> 100 µM (inactive)	> 100 µM (inactive)
CC(C)N/C(N)=N/C#N	> 100 µM (inactive)	> 100 µM (inactive)		> 100 µM (inactive)	> 100 µM (inactive)	> 100 µM (inactive)	> 100 µM (inactive)	> 100 µM (inactive)	> 100 µM (inactive)	> 100 µM (inactive)			> 100 µM (inactive)	> 100 µM (inactive)	> 100 µM (inactive)	> 100	> 100 µM (inactive)	> 100 µM (inactive)	> 100 µM (inactive)
O=Cc1ccc2c(c1-c1c(C=O)ccc3c1OCO3)OCO2	> 100 µM (inactive)	> 100 µM (inactive)	> 100 µM (inactive)	> 100 µM (inactive)	> 100 µM (inactive)	> 100 µM (inactive)	> 100 µM (inactive)	> 100 µM (inactive)	> 100 µM (inactive)	> 100 µM (inactive)		> 100 µM (inactive)	> 100 µM (inactive)	> 100 µM (inactive)	> 100 µM (inactive)	> 100	> 100 µM (inactive)	96.6 µM (inactive)	
CN(CCCNC(=O)c1cn(C)c2c1ccc1ccccc12)CCCNC(=O)c1cn(C)c2c1ccc1ccccc12	1.51 µM (inactive)	1.44 µM (inactive)	2.4 µM (inactive)	1.71 µM (inactive)	2.06 µM (inactive)			9.35 µM (inactive)	1.53 µM (inactive)		1.65 µM (inactive)	1.51 µM (inactive)	1.66 µM (inactive)			1.73	2.59 µM (inactive)		1.82 µM (inactive)
CC1SC2=NC3=C(c4ccccc4C3=O)C(c3ccc(Br)cc3)N2C1=O (stereo not drawn)	37.2 µM (inactive)	8.47 µM (inactive)	35.5 µM (inactive)	> 100 µM (inactive)	30.6 µM (inactive)		44.3 µM (inactive)	41.4 µM (inactive)	80.9 µM (inactive)	44.6 µM (inactive)		40.8 µM (inactive)	23.2 µM (inactive)	> 100 µM (inactive)	24.5 µM (inactive)	52.2	51.9 µM (inactive)	31.6 µM (inactive)	
CCc1cccc(C)c1NC(=O)C(=O)Cc1nc2ccccc2o1	> 100 µM (inactive)	> 100 µM (inactive)	> 100 µM (inactive)	> 100 µM (inactive)	> 100 µM (inactive)	> 100 µM (inactive)	> 100 µM (inactive)	> 100 µM (inactive)	> 100 µM (inactive)	> 100 µM (inactive)	> 100 µM (inactive)	> 100 µM (inactive)	> 100 µM (inactive)	> 100 µM (inactive)		> 100	> 100 µM (inactive)	> 100 µM (inactive)	> 100 µM (inactive)
N#CCCCCCOCCOCCOCCOCCOCCCCCC#N	97.7 µM (inactive)	> 100 µM (inactive)	> 100 µM (inactive)	> 100 µM (inactive)	68.7 µM (inactive)		> 100 µM (inactive)	> 100 µM (inactive)	> 100 µM (inactive)	68.5 µM (inactive)	> 100 µM (inactive)	> 100 µM (inactive)	> 100 µM (inactive)	> 100 µM (inactive)	> 100 µM (inactive)	> 100	> 100 µM (inactive)		> 100 µM (inactive)
C#CC1(O)c2ccccc2C(=O)c2ccccc21			> 100 µM (inactive)	> 100 µM (inactive)		> 100 µM (inactive)	> 100 µM (inactive)	> 100 µM (inactive)	> 100 µM (inactive)	> 100 µM (inactive)	> 100 µM (inactive)	> 100 µM (inactive)	> 100 µM (inactive)	> 100 µM (inactive)			> 100 µM (inactive)		> 100 µM (inactive)
CCN(CC)CCNc1ccc2nnn3c4ccc(OC)cc4c(=O)c1c23	13.5 µM (inactive)	10 µM (inactive)	10.4 µM (inactive)	4.71 µM (inactive)	12.9 µM (inactive)	3.04 µM (inactive)	10.4 µM (inactive)	6.46 µM (inactive)	12.2 µM (inactive)	3.78 µM (inactive)		8.49 µM (inactive)	6.3 µM (inactive)	11 µM (inactive)	7.82 µM (inactive)	6.17	3.58 µM (inactive)	2.82 µM (inactive)	2.22 µM (inactive)
CCOC(=O)CC1=N/C(=N/C(=N)N[N+](=O)[O-])SC1	> 100 µM (inactive)	> 100 µM (inactive)	> 100 µM (inactive)	> 100 µM (inactive)	> 100 µM (inactive)	> 100 µM (inactive)	> 100 µM (inactive)	> 100 µM (inactive)	> 100 µM (inactive)	> 100 µM (inactive)	> 100 µM (inactive)	> 100 µM (inactive)	> 100 µM (inactive)	> 100 µM (inactive)	> 100 µM (inactive)	> 100	> 100 µM (inactive)		> 100 µM (inactive)
CCCCCN(CCCCC)C(=O)[C@@H](CCC(=O)OCc1ccccc1)NC(=O)c1cc2ccccc2[nH]1	> 100 µM (inactive)	> 100 µM (inactive)	6.22 µM (inactive)	> 100 µM (inactive)	6.78 µM (inactive)	> 100 µM (inactive)	> 100 µM (inactive)	> 100 µM (inactive)	8.81 µM (inactive)	5.55 µM (inactive)	> 100 µM (inactive)	> 100 µM (inactive)		> 100 µM (inactive)	> 100 µM (inactive)	> 100	> 100 µM (inactive)		> 100 µM (inactive)
CC1(Br)CC2OC3(Br)C=CC(C)(O)C2(CC1=O)C3(C)C (stereo not drawn)	> 100 µM (inactive)	> 83.9 µM (inactive)	> 100 µM (inactive)	> 100 µM (inactive)	99.1 µM (inactive)	> 100 µM (inactive)	> 100 µM (inactive)	> 100 µM (inactive)	> 100 µM (inactive)	19.1 µM (inactive)		> 100 µM (inactive)	> 100 µM (inactive)	> 100 µM (inactive)	64.6 µM (inactive)	> 100	> 100 µM (inactive)	36.8 µM (inactive)	> 100 µM (inactive)
